Reference: ChEMBL document CHEMBL1155774, “Pharmacokinetics, safety, and hydrolysis of oral pyrroloquinazolinediamines administered in single and multiple doses in rats” (Antimicrob Agents Chemother, 2007)

What was measured:
[1] = tested on: Rattus norvegicus; experiment: AUC (0 to infinity) in intragastrically dosed Sprague-Dawley rat assessed as pyrroloquinazolinediamine level at 47.6 umol/kg administered daily for 3 days measured on day 3; type: ADME, organism-based, Plasma; set-up: dose 47.6 umol/kg, time infinity, route intragastric; conditions: in vivo, po, 72 h
[2] = tested on: Rattus norvegicus; experiment: Anorexic toxicity in intragastrically dosed Sprague-Dawley rat assessed as ratio of body weight change to day of weight change at 1170 umol/kg administered as single dose after 14 days; type: organism-based; conditions: in vivo, po, 336 h
[3] = tested on: Rattus norvegicus; experiment: Bioavailability in intragastrically dosed Sprague-Dawley rat assessed as pyrroloquinazolinediamine level at 47.6 umol/kg administered daily for 3 days measured on day 3; type: ADME, organism-based; conditions: in vivo, po, 72 h
[4] = tested on: Rattus norvegicus; experiment: Anorexic toxicity in intragastrically dosed Sprague-Dawley rat assessed as ratio of body weight change to day of weight change at 95 umol/kg administered daily for 3 days measured after 14 days; type: organism-based; conditions: in vivo, po, 336 h
[5] = tested on: Rattus norvegicus; experiment: Anorexic toxicity in intragastrically dosed Sprague-Dawley rat assessed as ratio of body weight change to day of weight change at 780 umol/kg administered as single dose after 14 days; type: organism-based; conditions: in vivo, po, 336 h
[6] = tested on: Rattus norvegicus; experiment: Bioavailability in intragastrically dosed Sprague-Dawley rat assessed as pyrroloquinazolinediamine level at 95 umol/kg administered as single dose; type: ADME, organism-based; conditions: in vivo, po
[7] = Toxicity in intragastrically dosed Sprague-Dawley rat; type: organism-based; conditions: in vivo, po
[8] = tested on: Rattus norvegicus; experiment: Tmax in intragastrically dosed Sprague-Dawley rat assessed as pyrroloquinazolinediamine level at 95 umol/kg administered as single dose; type: ADME, organism-based; conditions: in vivo, po
[9] = tested on: Rattus norvegicus; experiment: Cmax in intragastrically dosed Sprague-Dawley rat assessed as pyrroloquinazolinediamine level at 47.6 umol/kg administered daily for 3 days measured on day 1; type: ADME, organism-based; set-up: dose 47.6 umol/kg, route intragastric; conditions: in vivo, po, 72 h
[10] = tested on: Rattus norvegicus; experiment: Anorexic toxicity in intragastrically dosed Sprague-Dawley rat assessed as ratio of body weight change to day of weight change after 14 days; type: organism-based; conditions: in vivo, po, 336 h
[11] = tested on: Rattus norvegicus; experiment: Tmax in intragastrically dosed Sprague-Dawley rat assessed as pyrroloquinazolinediamine level at 47.6 umol/kg administered daily for 3 days measured on day 1; type: ADME, organism-based; conditions: in vivo, po, 72 h
[12] = tested on: Rattus norvegicus; experiment: Elimination half life in intragastrically dosed Sprague-Dawley rat assessed as pyrroloquinazolinediamine level at 47.6 umol/kg administered daily for 3 days measured on day 1; type: ADME, organism-based; conditions: in vivo, po, 72 h
[13] = Toxicity in intragastrically dosed Sprague-Dawley rat assessed as maximum tolerated dose; type: organism-based; conditions: in vivo, po
[14] = tested on: Rattus norvegicus; experiment: AUC (0 to infinity) in intragastrically dosed Sprague-Dawley rat assessed as pyrroloquinazolinediamine level at 47.6 umol/kg administered daily for 3 days measured on day 1; type: ADME, organism-based, Plasma; set-up: dose 47.6 umol/kg, time infinity, route intragastric; conditions: in vivo, po, 72 h
[15] = tested on: Rattus norvegicus; experiment: AUC (0 to infinity) in intragastrically dosed Sprague-Dawley rat assessed as pyrroloquinazolinediamine level at 95 umol/kg administered as single dose; type: ADME, organism-based, Plasma; set-up: dose 95 umol/kg, time infinity, route intragastric; conditions: in vivo, po
[16] = tested on: Rattus norvegicus; experiment: Cmax in intragastrically dosed Sprague-Dawley rat assessed as pyrroloquinazolinediamine level at 95 umol/kg administered as single dose; type: ADME, organism-based; set-up: dose 95 umol/kg, route intragastric; conditions: in vivo, po
[17] = tested on: Rattus norvegicus; experiment: Elimination half life in intragastrically dosed Sprague-Dawley rat assessed as pyrroloquinazolinediamine level at 47.6 umol/kg administered daily for 3 days measured on day 3; type: ADME, organism-based; conditions: in vivo, po, 72 h
[18] = tested on: Rattus norvegicus; experiment: Bioavailability in intragastrically dosed Sprague-Dawley rat assessed as pyrroloquinazolinediamine level at 47.6 umol/kg administered daily for 3 days measured on day 1; type: ADME, organism-based; conditions: in vivo, po, 72 h
[19] = tested on: Rattus norvegicus; experiment: Anorexic toxicity in intragastrically dosed Sprague-Dawley rat assessed as ratio of body weight change to day of weight change at 23.8 umol/kg administered daily for 3 days measured after 14 days; type: organism-based; conditions: in vivo, po, 336 h
[20] = tested on: Rattus norvegicus; experiment: Toxicity in intragastrically dosed Sprague-Dawley rat assessed as mortality at 2340 umol/kg administered as single dose after 14 days; type: organism-based; conditions: in vivo, po, 336 h
[21] = tested on: Rattus norvegicus; experiment: Cmax in intragastrically dosed Sprague-Dawley rat assessed as pyrroloquinazolinediamine level at 47.6 umol/kg administered daily for 3 days measured on day 3; type: ADME, organism-based; set-up: dose 47.6 umol/kg, route intragastric; conditions: in vivo, po, 72 h
[22] = tested on: Rattus norvegicus; experiment: Anorexic toxicity in intragastrically dosed Sprague-Dawley rat assessed as ratio of body weight change to day of weight change at 195 umol/kg administered as single dose after 14 days; type: organism-based; conditions: in vivo, po, 336 h
[23] = tested on: Rattus norvegicus; experiment: Tmax in intragastrically dosed Sprague-Dawley rat assessed as pyrroloquinazolinediamine level at 47.6 umol/kg administered daily for 3 days measured on day 3; type: ADME, organism-based; conditions: in vivo, po, 72 h
[24] = tested on: Rattus norvegicus; experiment: Anorexic toxicity in intragastrically dosed Sprague-Dawley rat assessed as ratio of body weight change to day of weight change at 11.9 umol/kg administered daily for 3 days measured after 14 days; type: organism-based; conditions: in vivo, po, 336 h
[25] = tested on: Rattus norvegicus; experiment: Anorexic toxicity in intragastrically dosed Sprague-Dawley rat assessed as ratio of body weight change to day of weight change at 47.6 umol/kg administered daily for 3 days measured after 14 days; type: organism-based; conditions: in vivo, po, 336 h
[26] = tested on: Rattus norvegicus; experiment: Total AUC in intragastrically dosed Sprague-Dawley rat assessed as pyrroloquinazolinediamine level at 47.6 umol/kg administered daily for 3 days measured on day 3; type: ADME, organism-based; set-up: dose 47.6 umol/kg, route intragastric, time AUCmax; conditions: in vivo, po, 72 h
[27] = tested on: Rattus norvegicus; experiment: Elimination half life in intragastrically dosed Sprague-Dawley rat assessed as pyrroloquinazolinediamine level at 95 umol/kg administered as single dose; type: ADME, organism-based; conditions: in vivo, po
[28] = tested on: Rattus norvegicus; experiment: AUC in intragastrically dosed Sprague-Dawley rat assessed as monoacetamide pyrroloquinazolinediamine level at 95 umol/kg administered as single dose; type: ADME, organism-based, Plasma; conditions: in vivo, po
[29] = tested on: Rattus norvegicus; experiment: Anorexic toxicity in intragastrically dosed Sprague-Dawley rat assessed as ratio of body weight change to day of weight change at 190 umol/kg administered daily for 3 days measured after 14 days; type: organism-based; conditions: in vivo, po, 336 h
[30] = tested on: Rattus norvegicus; experiment: Metabolic stability in intragastrically dosed Sprague-Dawley rat assessed as formation of pyrroloquinazolinediamine; type: ADME, organism-based; conditions: in vivo, po
[31] = tested on: Rattus norvegicus; experiment: Anorexic toxicity in intragastrically dosed Sprague-Dawley rat assessed as ratio of body weight change to day of weight change at 2340 umol/kg administered as single dose after 14 days; type: organism-based; conditions: in vivo, po, 336 h
[32] = tested on: Rattus norvegicus; experiment: Elimination half life in intragastrically dosed Sprague-Dawley rat assessed as monoacetamide pyrroloquinazolinediamine level at 95 umol/kg administered as single dose; type: ADME, organism-based; conditions: in vivo, po
[33] = tested on: Plasma; experiment: Metabolic stability in Sprague-Dawley rat plasma assessed as formation of pyrroloquinazolinediamine after 30 mins; type: ADME, cell-free; conditions: 0.5 h
[34] = tested on: Rattus norvegicus; experiment: Toxicity in intragastrically dosed Sprague-Dawley rat at 2340 umol/kg; type: organism-based; conditions: in vivo, po
[35] = tested on: Rattus norvegicus; experiment: Elimination half life in intragastrically dosed Sprague-Dawley rat assessed as bisacetamide pyrroloquinazolinediamine level at 95 umol/kg administered as single dose; type: ADME, organism-based; conditions: in vivo, po
[36] = tested on: Rattus norvegicus; experiment: AUC in intragastrically dosed Sprague-Dawley rat assessed as bisacetamide pyrroloquinazolinediamine level at 95 umol/kg administered as single dose; type: ADME, organism-based, Plasma; conditions: in vivo, po
[37] = tested on: Rattus norvegicus; experiment: Anorexic toxicity in intragastrically dosed Sprague-Dawley rat assessed as ratio of body weight change to day of weight change at 1560 umol/kg administered as single dose after 14 days; type: organism-based; conditions: in vivo, po, 336 h

Row | SMILES | AUC [1] [ng·h/mL] | Ratio [2] | F [3] [%] | Ratio [4] | Ratio [5] | F [6] [%] | Tmax [8] [h] | Cmax [9] [ng/mL] | ID50 [10] [µmol/kg] | Tmax [11] [h] | t1/2 [12] [h] | MTD [13] [µmol/kg] | AUC [14] [ng·h/mL] | AUC [15] [ng·h/mL] | Cmax [16] [ng/mL] | t1/2 [17] [h] | F [18] [%] | Ratio [19] | Cmax [21] [ng/mL] | Ratio [22] | further results
1 | CCOC(=O)Nc1nc(NC(=O)OCC)c2c(ccc3c2ccn3Cc2ccccc2C(F)(F)F)n1 | 1529.6 | 0.84 | 31.06 | -0.65 | 2.21 | 14.86 | 3.83 | 59.46 | 60.65 | 3 | 13.29 | 1170 | 875.5 | 1381.4 | 108.7 | 16.93 | 20.45 | 1.88 | 63.36 | 2.49 | LD50 [7]: 1570 µmol/kg; Activity [20]: Toxic; Tmax [23]: 3.33 h; Ratio [24]: 2.42; Ratio [25]: 0.71; AUC [26]: 2856.1 ng·h/mL; t1/2 [27]: 13.59 h
2 | CC(=O)N(C(C)=O)c1nc(N(C(C)=O)C(C)=O)c2c(ccc3c2ccn3Cc2ccccc2C(F)(F)F)n1 | 1250.1 | 2.76 | 26.96 | 1.18 | 2.47 | 11.45 | 5.33 | 31.23 | 140.43 | 7 | 12.86 | 2340 | 705.9 | 1047.3 | 60.5 | 17.66 | 16.49 | 2.61 | 30.84 | 2.55 | AUC [28]: 176.5 ng·h/mL; Ratio [29]: -0.89; Activity [30]: 84%; Ratio [31]: 1.03; t1/2 [32]: 13.16 h; Activity [33]: 49%; Activity [34]: Non-toxic; t1/2 [35]: 12.64 h; Tmax [23]: 5.67 h; Ratio [24]: 2.46; AUC [36]: 24.9 ng·h/mL; Ratio [37]: 2.08; Ratio [25]: 2.06; AUC [26]: 1903.5 ng·h/mL; t1/2 [27]: 13.2 h
